The IC50 is the concentration that inhibits the measured activity by half.

Data set [1] relates to JIMT1 breast cancer cells. The experiment in a line: MTS cell viability assay, JIMT1. The format is cell-based. To be noted: Homo sapiens, JIMT-1, 72 h treatment. The protocol:
(§1) The cell viability effects of compounds 5a–5f were assessed in LY2, JIMT1, and MDA‐MB‐231 breast cancer cell lines using the 3‐(4,5‐dimethylthiazol‐2‐yl)‐5‐(3‐carboxymethoxyphenyl)‐2‐(4‐sulfophenyl)‐2H‐tetrazolium (MTS) assay. The MTS assay measures metabolic viability and serves as a first‐pass screen.
(§2) JIMT‐1 (DSMZ ACC 589) and MDA‐MB‐231 (ATCC HTB‐26) breast cancer cell lines were maintained in Dulbecco's Modified Eagle Medium (DMEM) High Glucose with L‐glutamine (D5796, Sigma) supplemented with 10% fetal calf serum. MCF7‐derivative LY2 breast cancer cells were previously described (REF: PMID: 33420368). LY2 cells were cultured in phenol red‐free MEM (PRF‐MEM; 51 200‐046, Gibco) supplemented with 10% charcoal dextran‐stripped fetal calf serum (CDS‐FCS; F6765, Merck), 2 mmol/L L‐glutamine (G7513, Merck), and 10^−8 mol/L 4‐hydroxytamoxifen (4‐OHT; H7904, Merck). All cell lines were maintained at 37°C in a humidified incubator with 5% CO2 and regularly authenticated and tested for mycoplasma.
(§3) Cell viability was evaluated in response to increasing concentrations of 5a‐5f (0.3, 1, 3, 10, and 30 μM) or vehicle control (0.1% DMSO). LY2, JIMT1, and MDA‐MB‐231 cells were seeded at a density of 2,500 cells per well in 96‐well plates with a total volume of 100 μL per well. Prior to treatment, cells were serum‐deprived for 24 h. Following serum depletion, cells were treated in complete growth medium for 72 h. Cell viability was assessed using the MTS assay (G1111, Promega) according to the manufacturer's instructions. Absorbance was measured at 495 nm using a BioTek Synergy HTX Multi‐Mode Microplate Reader (Agilent). Results were normalized to the vehicle control (DMSO), and the half‐maximal inhibitory concentration (IC50) of the inhibitors was determined by nonlinear regression (curve fit) using a four‐parameter variable slope model.
Background: Tetrazolium assays rely on reduction of a dye to a coloured formazan, in cell work by metabolically active cells.

Data set [2] deals with MDA‐MB‐231 triple‐negative breast cancer cell line. The experiment in a line: MTS cell viability assay, MDA-MB-231. The format is cell-based. To be noted: Homo sapiens, MDA-MB-231, 72 h, MDA‐MB‐231 cells, 72 h treatment. The procedure:
as §1, §2, §3

Data set [3] relates to LY2 breast cancer cells. The experiment in a line: MTS cell viability assay, LY2. The format is cell-based. The conditions noted are these: 72 h treatment. The procedure:
as §1, §2, §3

Data set [4] has as its system MCF‐10A cells. The experiment in a line: Cell viability in nontransformed cell line MCF-10A. The format is cell-based. To be noted: Homo sapiens. An excerpt: Thus, further optimization will be required to improve the therapeutic index.
FIGURE 5 Dose‐dependent effects of compound treatment (5b and 5f) on nontransformed breast cell viability across MCF‐10A.

Data set [5] has as its system HDAC2. More on the design: method as in PMID 22693356. To be noted: cited from earlier work.
Data set [6] has as its system HDAC5. More on the design: method as in PMID 22693356. To be noted: cited from earlier work.
In data set [7] the test system is HDAC9. Also on record: method as in PMID 22693356. To be noted: cited from earlier work.
The test system of data set [8] is HDAC. Also on record: method as in earlier work. The conditions noted are these: cited from earlier work.
Data set [9] deals with PI3Kα (Homo sapiens, UniProt P42336). More on the design: method as in earlier work. To be noted: cited from earlier work.
Chain of PI3Kα (P42336 whole entry): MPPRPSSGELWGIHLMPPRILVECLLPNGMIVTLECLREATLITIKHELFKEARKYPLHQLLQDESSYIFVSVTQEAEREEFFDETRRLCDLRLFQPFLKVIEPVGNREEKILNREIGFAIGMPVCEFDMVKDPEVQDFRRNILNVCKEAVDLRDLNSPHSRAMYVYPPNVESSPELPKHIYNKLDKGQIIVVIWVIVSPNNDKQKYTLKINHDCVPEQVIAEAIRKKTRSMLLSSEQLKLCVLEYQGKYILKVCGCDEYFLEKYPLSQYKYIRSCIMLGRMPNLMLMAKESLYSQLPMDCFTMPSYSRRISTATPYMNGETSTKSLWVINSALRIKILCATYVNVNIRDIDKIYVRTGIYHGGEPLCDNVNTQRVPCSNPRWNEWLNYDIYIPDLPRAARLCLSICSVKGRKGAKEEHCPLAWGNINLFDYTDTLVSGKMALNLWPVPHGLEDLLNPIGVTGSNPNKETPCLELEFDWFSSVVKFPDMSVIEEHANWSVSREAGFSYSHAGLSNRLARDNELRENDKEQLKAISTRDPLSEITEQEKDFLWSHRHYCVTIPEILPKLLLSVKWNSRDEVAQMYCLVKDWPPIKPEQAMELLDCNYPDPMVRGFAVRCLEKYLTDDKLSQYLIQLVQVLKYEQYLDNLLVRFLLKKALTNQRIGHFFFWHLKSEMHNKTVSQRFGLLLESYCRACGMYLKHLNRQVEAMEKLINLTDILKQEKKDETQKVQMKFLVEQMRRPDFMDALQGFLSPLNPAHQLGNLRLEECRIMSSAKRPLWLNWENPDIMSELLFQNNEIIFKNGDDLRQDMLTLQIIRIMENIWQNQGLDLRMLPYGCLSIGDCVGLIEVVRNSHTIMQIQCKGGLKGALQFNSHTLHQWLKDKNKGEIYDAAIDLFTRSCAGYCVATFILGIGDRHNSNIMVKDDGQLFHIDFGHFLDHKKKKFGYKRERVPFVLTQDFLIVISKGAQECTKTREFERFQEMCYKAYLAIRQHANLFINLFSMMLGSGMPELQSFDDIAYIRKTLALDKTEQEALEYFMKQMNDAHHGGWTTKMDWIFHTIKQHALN
Chain of PI3Kα (P27986 whole entry partner): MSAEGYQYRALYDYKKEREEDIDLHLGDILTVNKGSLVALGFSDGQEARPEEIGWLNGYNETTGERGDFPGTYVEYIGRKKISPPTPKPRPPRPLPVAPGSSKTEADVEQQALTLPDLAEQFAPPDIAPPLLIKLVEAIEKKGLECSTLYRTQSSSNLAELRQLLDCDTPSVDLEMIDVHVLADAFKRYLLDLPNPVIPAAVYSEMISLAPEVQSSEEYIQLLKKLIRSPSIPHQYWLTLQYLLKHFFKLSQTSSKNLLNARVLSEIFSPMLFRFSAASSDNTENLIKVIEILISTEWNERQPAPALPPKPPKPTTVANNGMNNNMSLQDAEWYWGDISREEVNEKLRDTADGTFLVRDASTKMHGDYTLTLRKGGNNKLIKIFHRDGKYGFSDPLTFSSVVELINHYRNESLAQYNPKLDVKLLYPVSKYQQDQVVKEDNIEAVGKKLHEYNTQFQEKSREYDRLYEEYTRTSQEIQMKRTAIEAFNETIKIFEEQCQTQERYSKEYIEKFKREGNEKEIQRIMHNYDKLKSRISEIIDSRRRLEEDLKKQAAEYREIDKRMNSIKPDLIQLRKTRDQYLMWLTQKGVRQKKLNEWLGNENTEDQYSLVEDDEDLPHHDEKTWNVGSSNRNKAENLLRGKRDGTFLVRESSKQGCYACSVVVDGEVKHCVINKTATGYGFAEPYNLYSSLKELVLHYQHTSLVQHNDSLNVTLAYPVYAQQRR
The target in data set [10] is HDAC1 (Homo sapiens, UniProt Q13547). Also on record: method as in PMID 32022441. The conditions noted are these: cited from earlier work.
Chain of HDAC1 (Q13547 whole entry): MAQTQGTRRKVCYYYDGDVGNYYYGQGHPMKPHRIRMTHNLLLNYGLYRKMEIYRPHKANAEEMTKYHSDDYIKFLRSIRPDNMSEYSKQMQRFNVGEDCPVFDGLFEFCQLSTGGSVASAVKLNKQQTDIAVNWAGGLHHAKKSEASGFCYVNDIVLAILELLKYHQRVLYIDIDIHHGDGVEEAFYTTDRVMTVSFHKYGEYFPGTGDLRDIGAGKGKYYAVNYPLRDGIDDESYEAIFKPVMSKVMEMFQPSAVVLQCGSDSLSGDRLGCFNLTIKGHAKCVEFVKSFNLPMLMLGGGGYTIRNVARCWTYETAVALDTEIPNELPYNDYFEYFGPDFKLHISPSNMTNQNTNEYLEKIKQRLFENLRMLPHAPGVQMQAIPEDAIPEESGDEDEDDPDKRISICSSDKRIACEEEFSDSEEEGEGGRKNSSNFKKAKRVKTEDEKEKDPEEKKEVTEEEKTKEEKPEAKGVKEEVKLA
The target of data set [11] is HDAC4 (Homo sapiens, UniProt P56524). More on the design: method as in PMID 32022441. To be noted: cited from earlier work.
Chain of HDAC4 (P56524 whole entry): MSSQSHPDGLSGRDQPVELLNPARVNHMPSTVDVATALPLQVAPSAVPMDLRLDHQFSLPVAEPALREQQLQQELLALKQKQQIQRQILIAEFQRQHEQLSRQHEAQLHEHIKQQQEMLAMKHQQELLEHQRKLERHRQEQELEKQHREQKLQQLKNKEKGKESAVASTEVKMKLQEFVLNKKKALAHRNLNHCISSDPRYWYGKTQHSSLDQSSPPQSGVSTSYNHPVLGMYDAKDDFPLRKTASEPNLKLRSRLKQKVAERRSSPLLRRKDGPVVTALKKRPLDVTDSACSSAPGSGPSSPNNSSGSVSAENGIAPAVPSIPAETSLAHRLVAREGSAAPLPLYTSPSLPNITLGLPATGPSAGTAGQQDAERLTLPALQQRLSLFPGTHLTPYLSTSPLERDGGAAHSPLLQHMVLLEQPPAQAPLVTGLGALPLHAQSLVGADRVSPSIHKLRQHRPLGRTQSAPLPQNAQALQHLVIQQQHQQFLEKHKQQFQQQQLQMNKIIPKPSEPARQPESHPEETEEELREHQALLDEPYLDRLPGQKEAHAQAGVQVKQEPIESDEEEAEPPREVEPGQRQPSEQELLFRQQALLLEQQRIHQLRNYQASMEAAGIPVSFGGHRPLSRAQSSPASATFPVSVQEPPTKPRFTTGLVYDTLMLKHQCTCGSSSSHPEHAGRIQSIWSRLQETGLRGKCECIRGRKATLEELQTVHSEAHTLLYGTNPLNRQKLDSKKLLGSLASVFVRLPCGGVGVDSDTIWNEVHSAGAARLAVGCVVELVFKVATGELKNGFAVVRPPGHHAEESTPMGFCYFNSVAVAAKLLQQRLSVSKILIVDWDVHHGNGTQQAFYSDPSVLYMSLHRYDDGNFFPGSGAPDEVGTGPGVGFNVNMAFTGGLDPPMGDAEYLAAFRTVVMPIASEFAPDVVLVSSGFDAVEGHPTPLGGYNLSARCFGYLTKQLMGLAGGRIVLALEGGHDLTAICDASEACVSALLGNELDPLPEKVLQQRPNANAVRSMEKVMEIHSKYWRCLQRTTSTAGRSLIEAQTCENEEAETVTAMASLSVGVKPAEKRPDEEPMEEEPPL
Details of data set [12]: method as in PMID 32022441. The conditions noted are these: previous studies of the authors ref 25; cited from earlier work.

Where only a bound is given, the exact number is not on record here.

`O=C(NO)c1ccc(CNc2nc(-c3cccnc3)nc(N3CCOCC3)n2)cc1` [Compound 5c, N‐Hydroxy‐4‐(((4‐Morpholino‐6‐(pyridin‐3‐yl)−1,3,5‐Triazin‐2‐yl)Amino)Methyl)Benzamide]: the half-inhibitory concentration (IC50) in data set [1] came out at 10.5 µM; in data set [2], 9.43 µM; in [3], 10 µM.
The like results for `Nc1ncc(-c2nc(NCc3ccc(C(=O)NO)cc3)nc(N3CCOCC3)n2)cn1` [Compound 5e, 4‐(((4‐(2‐Aminopyrimidin‐5‐yl)‐6‐Morpholino‐1,3,5‐Triazin‐2‐yl)Amino)Methyl)‐N‐Hydroxybenzamide] were, in that order, 15.6 ± 6.48 µM, 10.4 µM and 8.84 ± 3.47 µM.
For the molecule `COc1ccc(-c2nc(N3CCOCC3)c3sc(CN(C)c4ncc(C(=O)NO)cn4)cc3n2)cn1` [Fimepinostat, fimepinostat, reference compound], the IC50 was under 0.3 µM in [1]; under 0.3 µM in data set [2]; under 0.3 µM in [3]; under 300 nM in data set [4]; […] in data set [5]; […] in data set [6]. Moreover, in [7], the IC50 is […].
As to `O=C(NO)c1ccc(CNc2nc(-c3ccccc3)nc(N3CCOCC3)n2)cc1` [Compound 5a, N‐Hydroxy‐4‐(((4‐Morpholino‐6‐Phenyl‐1,3,5‐Triazin‐2‐yl)Amino)Methyl)Benzamide], the IC50 turned out to be 8.58 ± 0.14 µM in [1], 5.8 ± 0.6 µM in data set [2] and 10.9 µM in data set [3].
For `Nc1ccc(-c2nc(NCc3ccc(C(=O)NO)cc3)nc(N3CCOCC3)n2)cn1` [Compound 5d, 4‐(((4‐(6‐Aminopyridin‐3‐yl)‐6‐Morpholino‐1,3,5‐Triazin‐2‐yl)Amino)Methyl)‐N‐Hydroxybenzamide], the concentration for half-maximal inhibition (IC50) in [1] stood at 8.97 ± 2.64 µM; in data set [2], 13.1 ± 6.08 µM; in data set [3] it was 10.3 ± 3 µM.
For `CNc1ccc(-c2nc(N3CCOCC3)c3sc(CN(C)c4ncc(C(=O)NO)cn4)cc3n2)cn1` [Ifupinostat, ifupinostat], the IC50 in [8] is 100 to 1000 nM; in data set [9] it was under 100 nM.
Regarding `O=C(NO)c1ccc(/C=N/NC(=O)c2cc(N3CCOCC3)nc(-c3cccc(O)c3)n2)cc1` [LASSBio-2208], the IC50 in data set [10] and in [11] was over 3 µM throughout. In addition, in data set [12], the “stability of the NAH motif” value is on record as “acid‐labile”.
